Molecules are shown by their SMILES. Converted amounts (≈) assume the structure as drawn.

The assay relates to Mycobacterium tuberculosis variant bovis BCG. Nature of the assay: Antimycobacterial activity against Mycobacterium bovis BCG ATCC 35734 in 7H12 medium after 6 days and 18 hrs after adding resazurin dye/Tween 80 by Microplate Alamar Blue assay. Format: functional. In general terms: Resazurin is reduced to fluorescent resorufin, in cell work by metabolically active cells.
In the case of `Cc1cc(C)n2nc(C(=O)NCc3ccccc3)nc2n1`, the MIC (commonly the lowest concentration that inhibits growth of the organism) was more than 128 µM. Consider `Cc1ccc2nc(C)c(C(=O)NCc3ccccc3)n2c1`, for which 0.96 µM (≈ 0.268 µg/mL) was the least that counted as inhibitory (MIC).

Molecule `Cc1cnc2nc(C)c(C(=O)NCc3ccccc3)n2c1` returned a minimal inhibitory concentration (MIC) of 7.8 µM (≈ 2.19 µg/mL). `Cc1ccc2nc(C)c(C(=O)NCc3ccccc3)n2n1` displayed an MIC of more than 128 µM. As for `Cc1ccc2c(C(=O)NCc3ccccc3)c(C)[nH]c2c1`, the figure is more than 128 µM; as for `Cc1ccc2c(C(=O)NCc3ccccc3)n[nH]c2c1`, more than 128 µM; as for `Cc1ccn2c(C(=O)NCc3ccccc3)nnc2c1`, more than 128 µM. `Cc1ccn2c(C)c(C(=O)NCc3ccccc3)nc2c1` showed an MIC of more than 128 µM. Take `NNC(=O)c1ccncc1` [ISONIAZID]: the MIC was determined as 0.41 µM (≈ 0.0562 µg/mL).

On to `COc1c(N2C[C@@H]3CCCN[C@@H]3C2)c(F)cc2c(=O)c(C(=O)O)cn(C3CC3)c12` [MOXIFLOXACIN], for which inhibition of growth (MIC) required 0.06 µM (≈ 0.0241 µg/mL). Under `CO[C@H]1/C=C/O[C@@]2(C)Oc3c(C)c(O)c4c(O)c(c(/C=N/N5CCN(C)CC5)c(O)c4c3C2=O)NC(=O)/C(C)=C\C=C\[C@H](C)[C@H](O)[C@@H](C)[C@@H](O)[C@@H](C)[C@H](OC(C)=O)[C@@H]1C` [RIFAMPIN] stands less than 0.004 µM.

These data come from ChEMBL document CHEMBL3352337, “Scaffold-switching: an exploration of 5,6-fused bicyclic heteroaromatics systems to afford antituberculosis activity akin to the imidazo[1,2-a]pyridine-3-carboxylates” (Bioorg Med Chem Lett, 2014).
